Laboratory results: patent US20250332178A1, “METHODS OF TREATING MYCOBACTERIAL INFECTIONS USING TETRACYCLINE COMPOUNDS” (priority 2018, published 2025)
≈ marks a conversion by molar mass, not a printed value. Where two headings read alike, the source gives them in different places.

Columns and labels:
M. smegmatis group = test: MIC (CLSI broth dilution), RGM isolates; assay type: cell-based; conditions: Mycolicibacterium smegmatis, read-out: MIC
M. arupense = test: MIC (CLSI broth dilution), slow-growing NTM isolates; assay type: cell-based; conditions: isolate 11, Other; read-out: MIC
M. simiae = test: as above; assay type: cell-based; conditions: read-out: MIC
M. fortuitum group = test: MIC (CLSI broth dilution), RGM isolates; assay type: cell-based; conditions: Mycolicibacterium fortuitum, read-out: MIC
M. chelonae = test: MIC (CLSI broth dilution), RGM isolates; assay type: cell-based; conditions: Mycobacteroides chelonae, read-out: MIC
[1] = test system: rapid-growing mycobacteria (RGM) isolates; test: MIC (CLSI broth dilution), all RGM isolates; assay type: cell-based, nontuberculous mycobacteria; conditions: all 50 RGM isolates
M. mucogenium group = test: MIC (CLSI broth dilution), RGM isolates; assay type: cell-based; conditions: read-out: MIC
M. abscessus complex = test: MIC (CLSI broth dilution), RGM isolates; assay type: cell-based; conditions: Mycobacteroides abscessus, read-out: MIC
M. immunogenum group = test: MIC (CLSI broth dilution), RGM isolates; assay type: cell-based; conditions: M. immunogenum, read-out: MIC

CN(C)c1ccc(O)c2c1C[C@H]1C[C@H]3[C@H](N(C)C)C(O)=C(C(N)=O)C(=O)[C@@]3(O)C(O)=C1C2=O [minocycline]
MIC (M. smegmatis group; isolate 49, M. smegmatis group, M. goodii): ≤ 0.5 µg/mL
MIC (M. smegmatis group; isolate 50, M. smegmatis group, M. wolinskyi): ≤ 0.5 µg/mL
MIC (M. arupense): 8 µg/mL (≈ 17.5 µM)
MIC (M. simiae; isolate 13, Other): 4 µg/mL (≈ 8.74 µM)
MIC (M. simiae; isolate 14, Other): > 8 µg/mL
MIC (M. simiae; isolate 15, Other): > 8 µg/mL
MIC (M. fortuitum group; isolate 23, M. fortuitum group, M. fortuitum): ≤ 0.5 µg/mL
MIC (M. fortuitum group; isolate 24, M. fortuitum group, M. fortuitum): ≤ 0.5 µg/mL
MIC (M. fortuitum group; isolate 25, M. fortuitum group, M. fortuitum): > 8 µg/mL
MIC (M. fortuitum group; isolate 26, M. fortuitum group, M. porcinum): 1 µg/mL (≈ 2.19 µM)
MIC (M. fortuitum group; isolate 27, M. fortuitum group, M. porcinum): 4 µg/mL (≈ 8.74 µM)
MIC (M. fortuitum group; isolate 28, M. fortuitum group, M. porcinum/M. boenickei): 1 µg/mL (≈ 2.19 µM)
MIC (M. fortuitum group; isolate 29, M. fortuitum group, M. porcinum/M. boenickei): 4 µg/mL (≈ 8.74 µM)
MIC (M. fortuitum group; isolate 30, M. fortuitum group, M. porcinum/M. boenickei): 8 µg/mL (≈ 17.5 µM)
MIC (M. fortuitum group; isolate 31, M. fortuitum group, M. senegalense): ≤ 0.5 µg/mL
MIC (M. fortuitum group; isolate 32, M. fortuitum group, M. senegalense): ≤ 0.5 µg/mL
MIC (M. fortuitum group; isolate 33, M. fortuitum group, M. senegalense): ≤ 0.5 µg/mL
MIC (M. fortuitum group; isolate 34, M. fortuitum group, M. senegalense): ≤ 0.5 µg/mL
MIC (M. chelonae; isolate 18, M. chelonae): > 8 µg/mL
MIC (M. chelonae; isolate 19, M. chelonae): > 8 µg/mL
MIC (M. chelonae; isolate 20, M. chelonae): > 8 µg/mL
MIC (M. chelonae; isolate 21, M. chelonae): > 8 µg/mL
MIC (M. chelonae; isolate 22, M. chelonae): > 8 µg/mL
MIC50 ([1]; read-out: MIC50): 8 µg/mL (≈ 17.5 µM)
MIC90 ([1]; read-out: MIC90): > 8 µg/mL
MIC (M. mucogenium group; isolate 39, M. mucogenicum group, M. mucogenicum): ≤ 0.5 µg/mL
MIC (M. mucogenium group; isolate 40, M. mucogenicum group, M. mucogenicum): ≤ 1 µg/mL
MIC (M. mucogenium group; isolate 41, M. mucogenicum group, M. mucogenicum): ≤ 0.5 µg/mL
MIC (M. mucogenium group; isolate 42, M. mucogenicum group, M. mucogenicum): ≤ 0.5 µg/mL
MIC (M. mucogenium group; isolate 43, M. mucogenicum group, M. phocaicum): ≤ 0.5 µg/mL
MIC (M. mucogenium group; isolate 44, M. mucogenicum group, M. phocaicum): > 8 µg/mL
MIC (M. mucogenium group; isolate 45, M. mucogenicum group, M. phocaicum): > 8 µg/mL
MIC (M. mucogenium group; isolate 46, M. mucogenicum group, M. phocaicum): 8 µg/mL (≈ 17.5 µM)
MIC (M. mucogenium group; isolate 47, M. mucogenicum group, M. phocaicum): ≤ 0.5 µg/mL
MIC (M. mucogenium group; isolate 48, M. mucogenicum group, M. phocaicum): 2 µg/mL (≈ 4.37 µM)
MIC (M. abscessus complex; isolate 1, M. abscessus complex, erm gene type MAB30): > 8 µg/mL
MIC (M. abscessus complex; isolate 2, M. abscessus complex, erm gene type MAB30): 8 µg/mL (≈ 17.5 µM)
MIC (M. abscessus complex; isolate 3, M. abscessus complex, erm gene type MAB30): > 8 µg/mL
MIC (M. abscessus complex; isolate 4, M. abscessus complex, erm gene type massiliense): 4 µg/mL (≈ 8.74 µM)
MIC (M. abscessus complex; isolate 5, M. abscessus complex, erm gene type massiliense/subsp. abs hybrid): > 8 µg/mL
MIC (M. abscessus complex; isolate 6, M. abscessus complex, erm gene type Type 1 abscessus): > 8 µg/mL
MIC (M. abscessus complex; isolate 7, M. abscessus complex, erm gene type Type 1 abscessus): 8 µg/mL (≈ 17.5 µM)
MIC (M. abscessus complex; isolate 8, M. abscessus complex, erm gene type Type 1 abscessus): > 8 µg/mL
MIC (M. abscessus complex; isolate 9, M. abscessus complex, erm gene type Type 1 abscessus): > 8 µg/mL
MIC (M. abscessus complex; isolate 10, M. abscessus complex, erm gene type Type 1 abscessus): > 8 µg/mL
MIC (M. abscessus complex; isolate 11, M. abscessus complex, erm gene type Type 6 abscessus): 4 µg/mL (≈ 8.74 µM)
MIC (M. abscessus complex; isolate 12, M. abscessus complex, erm gene type Type 6 abscessus): > 8 µg/mL
MIC (M. abscessus complex; isolate 13, M. abscessus complex, erm gene type Type 6 abscessus): > 8 µg/mL
MIC (M. abscessus complex; isolate 14, M. abscessus complex, erm gene type Type 6 abscessus): 4 µg/mL (≈ 8.74 µM)
MIC (M. abscessus complex; isolate 15, M. abscessus complex, erm gene type Type 7 abscessus): 8 µg/mL (≈ 17.5 µM)
MIC (M. abscessus complex; isolate 16, M. abscessus complex, erm gene type Type 7 abscessus): > 8 µg/mL
MIC (M. abscessus complex; isolate 17, M. abscessus complex, erm gene type Type 8 abscessus): 4 µg/mL (≈ 8.74 µM)
MIC (M. immunogenum group; isolate 35, M. immunogenum group): > 8 µg/mL
MIC (M. immunogenum group; isolate 36, M. immunogenum group): ≤ 0.5 µg/mL
MIC (M. immunogenum group; isolate 37, M. immunogenum group): > 8 µg/mL
MIC (M. immunogenum group; isolate 38, M. immunogenum group): > 8 µg/mL
